Where only a bound is given, the exact number is not on record here.

We go through 91 molecules from a melting point compilation (Tetko et al.; mined from patent text by program, amines drawn as free bases though some values may be those of a salt).

Broadly, the melting point is the temperature of the solid-liquid transition. In turn, `Nc1ccc(-c2ccc(-c3ccc(N)cc3)o2)cc1` yielded a melting point of 213 to 216 °C.

In turn, `O=[N+]([O-])c1nccn1CCCl` showed a melting point of 85 to 87 °C.

`O=C(Nc1ccc2c(c1)CCOC2)OCc1ccccc1` gave a melting point of 142 to 145 °C.

Molecule `COc1cc(C(F)(F)F)ccc1-c1ccc2c(c1)S(=O)(=O)NC(C1CCCCC1)N2` (stereo unspecified) showed a melting point of 255 to 257 °C.

Consider `Cc1nc2c(N)nc3ccccc3c2n1C`, for which the melting point was in the range of 288 to 290 °C.

With `CC(C)CC1CC(=O)c2cc(CC(=O)O)ccc21` (stereo unspecified), the melting point was 140 to 142 °C.

Consider `Cc1c(OCc2ccccc2)ccc2c(O)c(C(=O)Nc3cccc(F)c3)c(=O)oc12`, for which the melting point is 220 °C.

In turn, `CCN(CC)c1ccc(-c2cc(-c3ccc(C(=O)O)cc3)ccc2CCCNC2CC2)cc1C(C)(C)C` showed a melting point of 189 °C.

Molecule `CC(=O)c1ccc(OCCOc2ccc3ccccc3c2)c(F)c1` came in with a melting point of 171 to 173 °C.

`COc1ccc2c(n1)C1(CO2)C(=O)N(CC(=O)Nc2ccccc2F)c2ccccc21` (stereo unspecified) yielded a melting point of more than 170 °C.

The molecule `CCOC(=O)C=C(C)C=CC=C(C)C=Cc1c(Cl)cc(OC)c(C)c1Cl` displayed a melting point of 100 to 101 °C.

`CC(O)c1ccc(C2CCCCC2)cc1` (stereo unspecified) showed a melting point of 81.5 to 82.5 °C.

Consider `CCN(CC)C(=O)c1ccc(C(=C2CCNCC2)c2cccc3ccccc23)cc1`, for which the melting point is 80 to 85 °C.

As to `Cc1cc(NC(=O)c2cc(C#N)cc(C)n2)ccn1`, the melting point turned out to be 302 °C.

In turn, `Nc1ncc2c(n1)-c1ccc(Cl)cc1C(c1ccccc1Cl)=NC2` registered a melting point of 240 to 241 °C.

`O=C(NNc1ccc(NC(=S)Nc2ccccc2)cc1)c1ccc(Cl)cc1` gave a melting point of 198 to 199 °C.

The molecule `COC(=O)NC1CCC(Nc2ncc3c(N)cc(=O)n(CCCO)c3n2)CC1` (stereo unspecified) had a melting point of 190 to 191 °C.

The molecule `CCN1C(=O)Cc2cc3ccccc3cc2S1(=O)=O` displayed a melting point of 170 to 171 °C.

For the molecule `Cc1ccc(S(=O)(=O)NC(=O)C2C(=O)CC(CC(C)C)CC2=O)cc1` (stereo unspecified), the melting point was 128 to 130 °C.

The molecule `O=Cc1ccc(OC(F)F)c([N+](=O)[O-])c1` registered a melting point of 88 to 90 °C.

`Cc1noc(-c2c(C)nc(Br)n2C)n1` displayed a melting point of 89 °C.

Turning to `CC(=O)c1cc2c(c(CCl)c1O)CCCC2`, the melting point was 88 to 90 °C.

The molecule `CC1(Cc2ccccc2)CCNC1=O` (stereo unspecified) returned a melting point of 89 to 90 °C.

Molecule `CS(=O)(=O)c1ccc(-n2nc(C(F)(F)F)cc2-c2ccc(-c3ccco3)cc2)cc1C(F)(F)F` registered a melting point of 159 to 160 °C.

In the case of `CC(=O)Nc1ccc(C(O)C2CCN(CCc3ccccc3)CC2)cc1` (stereo unspecified), the melting point is 173 to 174 °C.

The molecule `NS(=O)(=O)c1cc(C(=O)O)cc(OCc2ccccc2)c1-c1ccccc1` showed a melting point of 199 to 200 °C.

`O=C(O)CN(Cc1ccccc1)C(=O)CCc1nc2c(F)c(F)cc(F)c2s1` yielded a melting point of 144 to 146 °C.

For the molecule `Nc1cc(N)c(-c2ccc([N+](=O)[O-])cc2-c2cccc(Cl)c2Cl)cn1`, the melting point is 237 to 239 °C.

`COc1ccccc1Oc1c(NS(=O)(=O)c2ccc(C(C)(C)C)cc2)nc(SC)nc1OCCOc1ncc(Br)cn1` came in with a melting point of 117 to 121 °C.

`C1=CCCCCN(CCc2nccc3c2[nH]c2ccccc23)CCCC1` showed a melting point of 77 to 82 °C.

As for `O=C(O)CCC1C2CC3CC(C2)CC1C3` (stereo unspecified), the melting point came to 116 °C.

On to `COc1ccc(N2CCCN(/C(C)=C(/C#N)C(N)=S)CC2)cc1`, for which the melting point lay within 157 to 158 °C.

In turn, `CNCCN1CCn2c1nc1ccccc12` gave a melting point of 60 to 63 °C.

Consider `CN(C)Cc1ccc(Cl)cc1C(=O)c1ccccc1F`, for which the melting point fell in the range of 91 to 92 °C.

As for `COc1cc(C(=O)Nc2c(Cl)cc3c(Br)n[nH]c3c2C(=O)NC2(C3CC3)CC2)n(-c2ncccc2Cl)n1`, the melting point is 190 to 194 °C.

In the case of `O=C(NC1CCCC1)n1cc(F)c(=O)[nH]c1=O`, the melting point was 137 °C.

In turn, `CCCc1c(OCCCOc2ccc3ccccc3c2)ccc2c1OC(CCC(=O)O)(CCC(=O)O)CC2=O` displayed a melting point of 158 °C.

As for `CCOCc1nc2c(N)nc3cc(NS(=O)(=O)CC)ccc3c2n1CC(C)(C)O`, the melting point lay within 124 to 127 °C.

The molecule `CN1CCN(Cc2cc(C(=O)c3cccs3)cc(C(C)(C)C)c2O)CC1` showed a melting point of 118 to 119 °C.

For the molecule `CCc1cccc(C)c1CNc1cc(C(=O)NCCO)cc2c1nc(C)n2C`, the melting point was in the range of 200 to 201 °C.

Turning to `CC(C)(C)OC(=O)Nc1cccc(C(=O)OCc2ccccc2)c1`, the melting point was in the range of 151 to 153 °C.

In turn, `CN(C)C1CCc2[nH]c3cc(OCc4ccccc4)ccc3c2C1` (stereo unspecified) came in with a melting point of 237 to 239 °C.

On to `CS(=O)(=O)N1CCS(=O)c2cccc(Cl)c2C1` (stereo unspecified), for which the melting point was in the range of 167 to 169 °C.

The molecule `CC(C)(C)[Si](C)(C)O[C@@H](CCCC(=O)N1C(=O)OC[C@@H]1Cc1ccccc1)c1ccc(F)cc1` came in with a melting point of 87.6 °C.

`CCn1c(=O)c2c(nc(/C=C/c3cc(C)c(OC)cc3C)n2C)n(CC)c1=O` returned a melting point of 235 to 236 °C.

Molecule `CN1CCC2(CCc3cc4ccccc4n3C2)C1` (stereo unspecified) registered a melting point of 55 to 58 °C.

Regarding `c1csc(C2NCCc3ccccc32)c1` (stereo unspecified), the melting point was 114 to 116 °C.

As for `CC(=O)Nc1ccc(Br)c2c1CCN(C(C)=O)C2`, the melting point fell in the range of 179 to 181 °C.

The molecule `Clc1cccc(Oc2ccc(OCn3cnc(Cl)c3Cl)cc2)n1` yielded a melting point of 94 to 98 °C.

In turn, `Cc1c(Sc2ccc(Cl)cc2)nn(-c2ccccc2)c(=O)c1C#N` had a melting point of 180 to 182 °C.

Molecule `Cc1nc(N)c2nc(C)n(NC3CCCCC3)c2c1C` had a melting point of 242 to 244 °C.

For the molecule `CC(C)(C)OC(=O)c1ncn2c1cc(N1CCN(C(=O)OC(C)(C)C)CC1)c1cc(Cl)ccc12`, the melting point was in the range of 246 to 247 °C.

As for `CCCCCCCN(CC)C(=O)Cc1ccc(N)cc1`, the melting point fell in the range of 172 to 174 °C.

In turn, `O=C1NC[C@@H](c2ccccc2)O1` showed a melting point of 86 to 87 °C.

The molecule `C=CCNc1cc(Oc2cc(Cl)c(Br)cc2Cl)c(Cl)cc1[N+](=O)[O-]` yielded a melting point of 102 °C.

`COc1cc(Nc2nc3cccc(-c4cccc(CN)c4)c3o2)cc(OC)c1OC`: the melting point was 145 to 150 °C.

`CNC(=O)N1CCC(=NO)c2cc(Cl)ccc21` returned a melting point of 211 to 212 °C.

For the molecule `O=S1(=O)Cc2ccc(F)cc2C(c2ccc(F)cc2)=NN1CCCc1ccccc1`, the melting point lay within 163 to 167 °C.

Turning to `O=C(O)c1c[nH]c(=O)n(-c2ccccc2S)c1=O`, the melting point fell in the range of 254 to 255 °C.

The molecule `O=C1OC(c2ccc(Cl)cc2)C(Cn2cncn2)(c2ccc(Cl)cc2Cl)O1` (stereo unspecified) yielded a melting point of 178 to 179 °C.

In the case of `O=c1c(Cc2ccccc2)cn2c3ccc(Cl)cc3c3cc(Cl)cc1c32`, the melting point lay within 206 to 209 °C.

Molecule `COc1cc([N+](=O)[O-])c(NCCCO)cc1O` displayed a melting point of 149 °C.

Take `COc1ccc(-c2sc3c(c2C)c(=O)c(C(C)=O)cn3Cc2ccccc2F)cc1`: the melting point fell in the range of 215 to 216 °C.

Take `Cc1cc2c(cc1C)SC(C(F)(F)F)C(C(=O)O)=C2` (stereo unspecified): the melting point fell in the range of 235 to 237 °C.

`CS(=O)c1ccc(-c2cn3c(c2-c2ccccc2)CCC3)cc1` (stereo unspecified): the melting point was 67 to 68 °C.

`COc1cccc(CCNC(=O)N(C)O)c1OC` displayed a melting point of 83 to 85 °C.

As for `CC(C)=CC(=O)OC(COc1ccc(C(=O)c2ccccc2)c(O)c1)COc1ccc(C(=O)c2ccccc2)c(O)c1`, the melting point lay in the range of 148 to 150 °C.

Take `COC(=O)N[C@H](C(=O)N[C@@H](Cc1ccccc1)[C@H](O)CN1C[C@H]2CCCC[C@H]2C[C@H]1C(=O)NC(C)(C)C)C(C)(C)S(C)(=O)=O`: the melting point lay in the range of 190 to 194 °C.

Molecule `COCCC(=O)N[C@H]1CC[C@H](CCN2CCN(c3nccc4c3OCC4)CC2)CC1` displayed a melting point of 180 °C.

Turning to `CCCCCc1cccn1NS(=O)(=O)C1CCCC=C1C(=O)OCC` (stereo unspecified), the melting point was 60 to 61 °C.

As to `Cc1cccc(C)c1CNc1cc(C(=O)NN)cc2c1nc(C)n2C`, the melting point was 277 to 278 °C.

For `COC(=O)CCCCCCCCc1ccc(O)cc1`, the melting point was in the range of 52 to 54 °C.

The molecule `NS(=O)(=O)c1ccc(-c2c(-c3ccccc3)[nH]c3ccccc23)cc1` yielded a melting point of 223 to 225 °C.

For `O=[N+]([O-])c1ccc(I)c(-c2cc([N+](=O)[O-])ccc2I)c1`, the melting point fell in the range of 230 to 232 °C.

With `CCOc1cccc2cc(C(=O)C34CC5CC(CC(C5)C3)C4)oc12`, the melting point lay within 84 to 86 °C.

As to `Cc1ccc2c(c1)C(=O)N(C)Cc1c(C(N)=O)ncn1-2`, the melting point lay in the range of 290 to 294 °C.

The molecule `CCc1cnc(OCCOc2ncnc(NS(=O)(=O)c3ccc(C(C)(C)C)cc3)c2Oc2cccc(OC)c2)nc1` returned a melting point of 158 to 160 °C.

Molecule `Cc1c(C)c2c(c(C)c1O)CCC(C)(C(=O)NC1CCN(c3ccc(NC(=N)c4cccs4)cc3)C1)O2` (stereo unspecified) registered a melting point of 135 to 138 °C.

On to `CCOC(=O)c1cnc2c3cc(N)ccc3c(C)cn2c1=O`, for which the melting point is 245 to 248 °C.

For `CCOC(=O)c1nc(O)n2c1c(=O)n(C)c1cc(C(F)(F)F)ccc12`, the melting point is more than 300 °C.

For the molecule `CCC(CC)(C(N)=O)c1ccc(Cl)cc1`, the melting point was 107 to 109 °C.

The molecule `C=CS(=O)CCNC(=O)NC(=O)CCCl` (stereo unspecified) came in with a melting point of 113 to 135 °C.

Turning to `O=C1CCc2sccc21`, the melting point was in the range of 87 to 88 °C.

The molecule `CCOC(=O)C(=O)Nc1nccs1` gave a melting point of 174 to 177 °C.

Molecule `CN(C)S(=O)(=O)c1ccccc1Cl` displayed a melting point of 49 to 51 °C.

`CCN(CC)C(=O)Oc1nc(-c2ccc(OC)cc2)cc2ccccc12` gave a melting point of 84 °C.

`C=CCNC(=O)N1CC(Oc2cccc(C(F)(F)F)c2)C1`: the melting point is 75 to 76 °C.

The molecule `O=C1CCC(c2c(-c3ccccc3)nn3ccccc23)=NN1` displayed a melting point of 187 to 189 °C.

Consider `Clc1nccc(-n2ccnc2)n1`, for which the melting point was found to be 128 °C.

`O=c1[nH]c2cc([N+](=O)[O-])c3c(c2[nH]c1=O)CN(C(=S)Nc1ccccc1)CC3` displayed a melting point of 270 to 274 °C.

`CC(=O)OC1C(C)=C(C)C(=O)N1c1ccc(Cl)c(Cl)c1` (stereo unspecified) came in with a melting point of 109 to 110 °C.
